Assays:
human orexin 2 receptor = target: T1, human orexin 2 receptor (Homo sapiens, UniProt O43614); test: Assay B: OX2R IP1 (in vitro OX2R potency); format: cell-based; details: 0.5 nM Orexin A concentration
T1 construct: stably expressing the full-length human orexin 2 receptor and the aequorin photoprotein; expressed in transfected cells; host or cells: CHO-K1 (CHO-K1/hOx2), co-expressing aequorin
T1 sequence (O43614 1-444): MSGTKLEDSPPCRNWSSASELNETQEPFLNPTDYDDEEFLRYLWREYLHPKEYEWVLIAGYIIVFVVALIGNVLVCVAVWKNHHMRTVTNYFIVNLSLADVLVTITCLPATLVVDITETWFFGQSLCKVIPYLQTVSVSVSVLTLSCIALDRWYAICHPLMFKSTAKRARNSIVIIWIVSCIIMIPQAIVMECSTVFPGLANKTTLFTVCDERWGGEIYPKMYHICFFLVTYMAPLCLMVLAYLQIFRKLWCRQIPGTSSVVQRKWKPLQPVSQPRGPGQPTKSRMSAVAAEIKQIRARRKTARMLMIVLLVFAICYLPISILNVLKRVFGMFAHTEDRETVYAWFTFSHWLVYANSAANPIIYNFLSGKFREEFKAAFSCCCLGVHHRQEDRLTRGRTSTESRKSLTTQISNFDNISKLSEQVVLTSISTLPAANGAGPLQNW
Source text: Activation of the orexin receptors expressed in cell lines results in an increase in intracellular IP3 concentration. IP1, a downstream metabolite of IP3, accumulates in cells following receptor activation and is stable in the presence of LiCl. Using Homogeneous Time-Resolved Fluorescence technology with Lumi4-Tb cryptate (commercially available from Cisbio Bioassay.) and a suitable fluorescence plate reader. […] Chem. Genomics 2009, 3, 22-32. This technique is used to characterize pharmacological modification of the orexin receptors.
B. In Vitro Testing of OX2R Potency: OX2R IP1
IP1 measurements are performed in CHO-K1 cells stably expressing the full-length human orexin 2 receptor and the aequorin photoprotein. Cells are cultivated in Ham's nutrient mixture F12 medium with 10% fetal calf serum, in a 37° C., 95% humidity and 5% CO2 incubator. The CHO-K1/hOx2 cell mass is expanded to larger cell numbers. The cells are obtained as frozen cells in cryo-vials and stored until use at −150° C. The viability of the cells after thawing is >90%. In preparation for the assay, 24 hours before the assay, the cells are thawed at 37° C. and immediately diluted with cell culture medium. After centrifugation, the cell pellet is resuspended in medium and then distributed into the assay plates with a density of 5000 cells/25 μL per well. The plates are incubated for one hour at room temperature to reduce edge effects before they are incubated for 24 hours at 37° C./5% CO2. Compounds are prepared by a 8-point serial dilution in DMSO and a final dilution step into assay buffer (HBSS with 20 mM HEPES, 0.1% BSA and 50 mM LiCl, pH 7.4) to ensure a final DMSO concentration of 1% in the assay. On the day of the assay, cells in the plate are washed twice with 60 μL assay buffer (20 μL buffer remained in the wells after washing), followed by adding 5 μL per well of compounds diluted in assay buffer. After 15 minutes of incubation at room temperature 5 μL per well of Orexin A peptide (final concentration: 0.5 nM) dissolved in assay buffer is added to the assay plate. The assay plate is incubated for 60 minutes at 37° C. Then 5 μl per well of Anti-IP1-Cryptate Tb solution and 5 μl per well of IP1-d2 dilution are added to all well of the plate and the plate is incubated for a further 60 minutes light protected at room temperature. The emission at 615 nm and 665 nm (Excitation wavelength: 320 nm) are measured using an EnVision reader (PerkinElmer). The ratio between the emission at 665 nm and 615 is calculated by the reader.
8-point four parametric non-linear curve fitting and determination of IC50 values and Hill slopes is performed using a regular analysis software e.g. AssayExplorer (Accelrys). In order to establish an agonist concentration independent parameter, Kb values are calculated using the following equation: IC50/((2+(A/EC50)n)^1/n−1) (with A=concentration agonist, EC50=EC50 agonist, n=Hill slope agonist) (see P. Leff, I. G. Dougall, Trends Pharmacol. Sci. 1993, 14(4), 110-112).
Kb values from Assay A (OX1R) and Assay B (OX2R) can then provide a selectivity ratio which is independent of the agonist (Orexin A) concentration.

[1] = Assay C: metabolic stability in human liver microsomes (Human MST); format: in vitro ADME; details: pooled human liver microsomes, pH 7.6, 1 μM compound, 37° C., read-out: Human MST t1/2
Source text: Stability in human liver microsomes refers to the susceptibility of compounds to biotransformation in the context of selecting and/or designing drugs with favorable pharmacokinetic properties. The primary site of metabolism for many drugs is the liver. Human liver microsomes contain the cytochrome P450s (CYPs), and thus represent a model system for studying drug metabolization in vitro. Enhanced stability in human liver microsomes is associated with several advantages, including increased bioavailability and longer half-life, which can enable lower and less frequent dosing of patients. Thus, enhanced stability in human liver microsomes is a favorable characteristic for compounds that are to be used for drugs.
C. Assessment of Metabolic Stability in Human Liver Microsomes (Human MST)
The metabolic stability of the compounds according to the invention may be investigated as follows:
The metabolic degradation of the test compound is assayed at 37° C. with pooled human liver microsomes. The final incubation volume of 100 μL per time point contains TRIS buffer pH 7.6 at room temperature (0.1 M), MgCl2 (5 mM), microsomal protein (1 mg/mL) and the test compound at a final concentration of 1 μM. Following a short pre-incubation period at 37° C., the reactions are initiated by addition of beta-nicotinamide adenine dinucleotide phosphate, reduced form (NADPH, 1 mM), and terminated by transferring an aliquot into solvent after different time points. After centrifugation (10000 g, 5 min), an aliquot of the supernatant is assayed by LC-MS/MS for the amount of parent compound. The half-life (t1/2) is determined by the slope of the semi-logarithmic plot of the concentration-time profile.

human MDR1 P-gp = test: Assay D: efflux in MDCK cells transfected with the human MDR1 gene; format: in vitro ADME, canine; details: dog; MDCK-MDR1 monolayers, pH 7.4, 37° C.; read-out: MDCK efflux ratio (BA/AB)
Protocol: The MDCK assay provides information on the potential of a compound to pass the blood brain barrier. Permeability measurements across polarized, confluent MDCK-MDR1 cell monolayers grown on permeable filter supports are used as an in vitro absorption model: apparent permeability coefficients (PE) of the compounds across the MDCK-MDR1 cell monolayers are measured (pH 7.4, 37° C.) in apical-to-basal (AB) and basal-to-apical (BA) transport direction. The AB permeability (PEAB) represents drug absorption from the blood into the brain and the BA permeability (PEBA) drug efflux from the brain back into the blood via both, passive permeability as well as active transport mechanisms mediated by efflux and uptake transporters that are expressed on the MDCK-MDR1 cells, predominantly by the overexpressed human MDR1 P-gp. Identical or similar permeabilities in both transport directions indicate passive permeation, vectorial permeability points to additional active transport mechanisms. Higher PEBA than PEAB (PEBA/PEAB>5) indicates the involvement of active efflux mediated by MDR1 P-gp, which might compromises the goal to achieve sufficient brain exposure. Therefore this assay provides valuable support for selection of compounds applicable for further in vivo testing. High permeability not limited by efflux at the blood brain barrier is a favourable characteristic for compounds that are to be used for drugs acting primarily in the CNS
D. Assessment of Efflux in Madin-Darby Canine Kidney (MDCK) Cells Transfected with the Human MDR1 Gene
Apparent permeability coefficients (PE) of the compounds across the MDCK-MDR1 cell monolayers are measured (pH 7.4, 37° C.) in apical-to-basal (AB) and basal-to-apical (BA) transport direction. AB permeability (PEAB) represents drug absorption from the blood into the brain and BA permeability (PEBA) drug efflux from the brain back into the blood via both passive permeability as well as active transport mechanisms mediated by efflux and uptake transporters that are expressed on the MDCK-MDR1 cells, predominantly by the overexpressed human MDR1 P-gp. The compounds are assigned to permeability/absorption classes by comparison of the AB permeabilities with the AB permeabilities of reference compounds with known in vitro permeability and oral absorption in the human. Identical or similar permeabilities in both transport directions indicate passive permeation, vectorial permeability points to additional active transport mechanisms. Higher PEBA than PEAB indicates the involvement of active efflux mediated by MDR1 P-gp. Active transport is concentration-dependently saturable.
MDCK-MDR1 cells (1-2×10e5 cells/1 cm2 area) are seeded on filter inserts (Costar transwell polycarbonate or PET filters, 0.4 μm pore size) and cultured (DMEM) for 7 days. Subsequently, the MDR1 expression is boosted by culturing the cells with 5 mM sodium butyrate in full medium for 2 days. Compounds are dissolved in appropriate solvent (like DMSO, 1-20 mM stock solutions). Stock solutions are diluted with HTP-4 buffer (128.13 mM NaCl, 5.36 mM KCl, 1 mM MgSO4, 1.8 mM CaCl2, 4.17 mM NaHCO3, 1.19 mM Na2HPO4×7H2O, 0.41 mM NaH2PO4×H2O, 15 mM HEPES, 20 mM glucose, 0.25% BSA, pH 7.4) to prepare the transport solutions (0.1-300 μM compound, final DMSO<=0.5%). The transport solution (TL) is applied to the apical or basolateral donor side for measuring A-B or B-A permeability (3 filter replicates), respectively. The receiver side contains the same buffer as the donor side. Samples are collected at the start and end of experiment from the donor and at various time intervals for up to 2 hours also from the receiver side for concentration measurement by HPLC-MS/MS or scintillation counting. Sampled receiver volumes are replaced with fresh receiver solution.

OX1R = target: T2, OX1R (Homo sapiens, UniProt O43613); details: cited from earlier work
T2 sequence (O43613 1-425): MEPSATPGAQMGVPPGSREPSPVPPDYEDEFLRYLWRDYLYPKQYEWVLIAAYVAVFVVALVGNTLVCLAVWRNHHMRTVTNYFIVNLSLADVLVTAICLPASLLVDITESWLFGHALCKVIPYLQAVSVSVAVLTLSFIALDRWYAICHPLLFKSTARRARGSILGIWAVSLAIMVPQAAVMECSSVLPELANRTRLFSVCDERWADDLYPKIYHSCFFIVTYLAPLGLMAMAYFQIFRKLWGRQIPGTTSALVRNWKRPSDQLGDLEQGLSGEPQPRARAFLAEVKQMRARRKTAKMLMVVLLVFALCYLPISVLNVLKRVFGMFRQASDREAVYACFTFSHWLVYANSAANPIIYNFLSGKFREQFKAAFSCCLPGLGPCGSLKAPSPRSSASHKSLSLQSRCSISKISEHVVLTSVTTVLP

OX2R = target: T3, OX2R (Homo sapiens, UniProt O43614); details: cited from earlier work
T3 sequence (O43614 1-444): T1 sequence (O43614 1-444)

[2] = as described in WO03/051872 (page 16-18)
[3] = corresponds to pKb described in WO03/051872

| Structure (SMILES) | Kb (human orexin 2 receptor) [nM] | half-life at 1 μM [1] [h] | efflux ratio (human MDR1 P-gp) | OX1R pKb (OX1R; [2]) | OX1R Kb (OX1R; [3]) [nM] | OX2R pKb (OX2R; [2]) | OX2R Kb (OX2R; [3]) [nM] |
| --- | --- | --- | --- | --- | --- | --- | --- |
| CCN(C(=O)c1cccc(Cl)c1-n1nccn1)[C@@H](C)CNc1ncc(C(F)(F)F)cn1 [Example 3] | 6.27 | 1.4 |  |  |  |  |  |
| Cc1nc(C(=O)N(C)CCNc2ncc(Br)cn2)c(-c2ccc(F)cc2)s1 [Example 6 in WO03/051872] |  |  | 0.8 | 6.4 to 7.4 | 400 to 40 | <6.6 to 7.4 | >250 to 40 |
| CCN(C(=O)c1cc(F)cc(F)c1-n1nccn1)[C@@H](C)CNc1ncc(C(F)(F)F)cn1 [Example 6] | 53.1 | > 2 |  |  |  |  |  |

Reference: patent publication US9884854B2, “N-[(pyrimidinylamino)propanyl]-and N[(pyrazinylamino)proppanyl]arylcarboxamides” (Boehringer Ingelheim International GmbH, priority 2016, dated 2018)
